Measurements as given in patent publication US9439424B2, “Synergistic weed control from applications of aminocyclopyrachlor and aminopyralid” (Dow AgroSciences LLC, priority 2012, dated 2016).
Values joined by “and” are separate entries in the source; they are usually repeats but may differ in a detail not shown here. Equal values may be shown once.

Test system: kochia or mock cypress (Kochia scoparia, KCHSC)
Test: Field trial, post-emergence foliar application, weed control rating 0-100%
Type: in vivo
Text: The (a) aminocyclopyrachlor or an agriculturally acceptable salt or ester thereof is mixed with or applied in combination with (b) aminopyralid or an agriculturally acceptable salt or ester thereof in an amount sufficient to induce a synergistic herbicidal effect. […] As described in the Herbicide Handbook of the Weed Science Society of America, Ninth Edition, 2007, p. 429, “‘synergism’ [is] an interaction of two or more factors such that the effect when combined is greater than the predicted effect based on the response to each factor applied separately.” Synergistic in the herbicide context can mean that the use of (a) and (b) as defined above results in an increased weed control effect compared to the weed control effects that are possible with the use of (a) or (b) alone. In some embodiments, the damage or injury to the undesired vegetation caused by the compositions and methods disclosed herein is evaluated using a scale from 0% to 100%, when compared with the untreated control vegetation, wherein 0% indicates no damage to the undesired vegetation and 100% indicates complete destruction of the undesired vegetation. […] 22 (1967)
In the Colby equation, the value E corresponds to the effect (plant damage or injury) that is to be expected if the activity of the individual compounds is additive. If the observed effect is higher than the value E calculated according to the Colby equation, then a synergistic effect is present according to the Colby equation.
Field trials were conducted with applications made to established grassland with naturally occurring weed populations. The target plants were treated with postemergence foliar applications when they were just emerged to the three-leaf stage and 0.6 centimeters (cm) (0.25 inches (in)) tall. All treatments were applied using a randomized complete block trial design, with 3 replications per treatment.
Treatments consisted of aminocyclopyrachlor in acid form and aminopyralid-triisopropanolammonium, each in water and applied alone or in combination. Spray solutions were prepared using an appropriate amount of dilution to form a 1.7 L aqueous spray solution with active ingredients in single and two way combinations. Formulated compounds were applied to the plant material with a backpack sprayer equipped with 8002 nozzles calibrated to deliver 13.5 gallon/acre (127 L/ha) at a spray height of 18-20 in (43-50 cm) above average plant canopy.
The treated plants were kochia or mock cypress (Kochia scoparia, KCHSC). The treated plots and control plots were rated blind at various intervals after application. Ratings were based on a scale of 0-100%, as discussed above, wherein 0% indicates no damage to the undesired vegetation and 100% indicates complete destruction of the undesired vegetation
Colby's equation was used to determine the herbicidal effects expected from the mixtures, as described above. The results were measured at 93 days and 183 days after the first application of the compositions. […] The herbicide tank mix combinations tested, application rates and ratios employed, plant species tested, and results are given below.

SMILES	Mean % weed control (aminopyralid-triisopropanolammonium alone 70 g ae/ha, 93 days) [%]	Mean % weed control (aminopyralid-triisopropanolammonium alone 70 g ae/ha, 183 days) [%]	Mean % weed control (aminopyralid-triisopropanolammonium alone 120 g ae/ha, 93 days) [%]	Mean % weed control (aminopyralid-triisopropanolammonium alone 120 g ae/ha, 183 days) [%]	Mean % weed control (aminocyclopyrachlor alone 140 g ae/ha, 93 days after application)	Mean % weed control (aminocyclopyrachlor alone 140 g ae/ha, 183 days after application) [%]
Nc1cc(Cl)nc(C(=O)O)c1Cl [Aminopyralid-triisopropanolammonium, aminopyralid-triisopropanolammonium]	30	16.67	20	13.3		
Nc1nc(C2CC2)nc(C(=O)O)c1Cl [Aminocyclopyrachlor, 6-amino-5-chloro-2-cyclopropylpyrimidine-4-carboxylic acid]					56.67% and 56.7%	45
